Laboratory results published in patent US20180296630A1, “METHODS AND COMPOSITIONS FOR PREVENTING OR TREATING OPHTHALMIC CONDITIONS” (Stealth BioTherapeutics Corp, priority 2012, published 2018).

How the values were obtained:
[1] = test system: trabecular meshwork cells from POAG patients (GTM); experiment: LDH cytotoxicity assay, GTM cells; format: cell-based, human
Text: In this Example, the effects of the aromatic-cationic peptides of the invention were compared between trabecular meshwork cells from POAG patients (GTM) and trabecular meshwork cells from non-diseased individuals (HTM). Methods useful in the studies of the present invention have been described. See generally, He Y, Ge J, Tombran-Tink J., Mitochondrial defects and dysfunction in calcium regulation in glaucomatous trabecular meshwork cells. Invest Ophthalmol Vis Sci. 2008, 49(11):4912-22; He Y, Leung K W, Zhang Y H, Duan S, Zhong X F, Jiang R Z, Peng Z, Tombran-Tink J, Ge J. Mitochondrial complex I defect induces ROS release and degeneration in trabecular meshwork cells of POAG patients: protection by antioxidants. Invest Ophthalmol Vis Sci. 2008, 49(4):1447-58. […]
To assess whether D-Arg-2′,6′-Dmt-Lys-Phe-NH2 had cytotoxic effects of HTM or GTM cells, various concentrations of D-Arg-2′,6′-Dmt-Lys-Phe-NH2 were administered to cells and the cytotoxicity was measured using an LDH assay. […] The assay quantitatively measures the stable, cytosolic, lactate dehydrogenase (LDH) enzyme, which is released from damaged cells. The released LDH is measured with a coupled enzymatic reaction that results in the conversion of a tetrazolium salt (iodonitrotetrazolium (INT)) into a red color formazan by diaphorase. […] The LDH activity is determined as NADH oxidation or INT reduction over a defined time period.

[2] = Ocular pharmacokinetics and disposition of total radioactivity after topical instillation or subcutaneous dosing; format: in vivo, New Zealand White rabbits; conditions: for AUC0-24 h / AUCinf / T1/2 / Tmax: topical instillation 1% solution, 40 μL/eye, total radioactivity; for time post-dosing at which equivalent drug concentration reached a maximum / equivalent drug content at peak concentration, of the total dose administered to the eye: topical instillation
Description: Sixteen New Zealand White rabbits were dosed with a formulation consisting of 10 mg/mL of ^14C-labeled D-Arg-2′,6′-Dmt-Lys-Phe-NH2. Animals were at least twelve weeks old and weighed 2.30-3.43 kg at the time of dosing. Animals were randomized to treatment groups according to Table 7.
Dosing solutions were prepared by combining 14.70 mg (correction factor of 0.782) of non-radiolabeled D-Arg-2′,6′-Dmt-Lys-Phe-NH2, and 17.49 mg (correction factor of 0.770) of ^14C-labeled D-Arg-2′,6′-Dmt-Lys-Phe-NH2, and dissolving in 2.5 mL of 0.01M PBS, pH 7.4 to achieve a concentration of 9.97 mg/mL (1%, free peptide) and a radiolabeled concentration of […]. Three aliquots (100 μL) of dosing solution were brought to a volume of 25 mL with saline. Duplicate 100 μL aliquots of the diluted solutions were quantified for radioactivity by liquid scintillation counting (LSC). […] The dosing solutions were stored at 2-8° C. for up to 24 hours prior to use, or at −70° C. for future use.
On Day 1, 40 μL of the 1% (10 mg/mL) D-Arg-2′,6′-Dmt-Lys-Phe-NH2 dosing solution was topically instilled into both eyes of each animal in Groups A-G. Each animal in Groups H-I received a single subcutaneous dose of 0.1 mL/kg (1 mg/kg) of the dosing solution into the dorsal scapular region. At the designated time, each animal was anesthetized and blood was collected via cardiac puncture. Animals were euthanized following cardiac puncture. Approximately 3±0.5 mL of whole blood was collected in a K2EDTA tube. Four aliquots (100 μL) were directly transformed to combustion cones. Blood aliquots were stored at ≤−20° C. until analyzed.
For Groups A-G, the right globe and one left globe from each group (N=3 globes) were collected and necropsied. The remaining left eye (except for Group G) was collected for possible 3D-QWBA (Quantitative whole body autoradiography) analysis and the conjunctiva remained intact to the eyes. For Groups H-I, both globes were collected from each animal and necropsied. All eyes designated for necropsy were rinsed with normal saline and aqueous humor samples were collected. The globes were enucleated and frozen in liquid nitrogen and stored at ≤−80° C. prior to dissection. The vitreous humor, cornea, conjunctiva, iris/ciliary body, lens, retina, choroid, and sclera were collected from the appropriate eye, weighed, and stored at ≤−20° C. prior to analysis. Aqueous humor samples were also stored at ≤−20° C. until analyzed.
All radioactivity measurements were performed using a Beckman Liquid Scintillation Spectrometer. Two blood aliquots were combusted and two aliquots were reserved for combustion if needed. From each eye, the cornea, conjunctiva, iris/ciliary body, lens, retina, choroid, and sclera from each eye were weighed into combustion cones and combusted. Duplicate aliquots of each aqueous humor sample and each vitreous humor sample were transferred to scintillation vials using Insta-Gel as the scintillation fluid, and the amount of radioactivity was determined.

Q: With D-Arg-2′,6′-Dmt-Lys-Phe-NH2 as the substance, how does the cytotoxicity ([1]; 10^−4M) read?
A: no cytotoxicity

Q: And the “viability (LDH assay)” value ([1]; various concentrations)?
A: does not affect the viability

Q: And the AUC0-24 h ([2]; aqueous humor)?
A: 2600 hr*ng-equi/g

Q: What about the AUCinf ([2]; aqueous humor) of the same substance?
A: 2680 hr*ng-equi/g

Q: And the T1/2 ([2]; aqueous humor)?
A: 4.60 h

Q: What about the Tmax ([2]; aqueous humor) of the same substance?
A: 4.0 h

Q: And the radioactivity concentration ([2]; blood, 1 hour after subcutaneous dosing (1 mg/kg))?
A: 356 ng-equi/g

Q: And the radioactivity concentration ([2]; blood, 2 hours after subcutaneous dosing (1 mg/kg))?
A: 87.9 ng-equi/g

Q: And the AUC0-24 h ([2]; blood)?
A: 1210 hr*ng-equi/g

Q: What about the AUCinf ([2]; blood) of the same substance?
A: 1250 hr*ng-equi/g

Q: And the T1/2 ([2]; blood)?
A: 4.36 h

Q: What about the Tmax ([2]; blood) of the same substance?
A: 2.0 h

Q: What about the “time post-dosing at which equivalent drug concentration reached a maximum” value ([2]; choroid, lens and retina) of the same substance?
A: 4 h

Q: And the equivalent drug concentration ([2]; choroid, 1 hour after subcutaneous dosing (1 mg/kg))?
A: 558±251 ng-equi/g

Q: And the AUC0-24 h ([2]; choroid)?
A: 1900 hr*ng-equi/g

Q: And the AUCinf ([2]; choroid)?
A: 2190 hr*ng-equi/g

Q: And the T1/2 ([2]; choroid)?
A: 8.21 h

Q: What about the Tmax ([2]; choroid) of the same substance?
A: 4.0 h

Q: And the “time post-dosing at which equivalent drug concentration reached a maximum” value ([2]; conjunctiva, cornea and sclera)?
A: 0.5 h

Q: What about the equivalent drug concentration ([2]; conjunctiva, 1 hour after subcutaneous dosing (1 mg/kg)) of the same substance?
A: 650±12 ng-equi/g

Q: And the “equivalent drug content at peak concentration, of the total dose administered to the eye” value (shortened to “equivalent drug content”) ([2]; conjunctiva)?
A: 0.293±0.198%

Q: And the AUC0-24 h ([2]; conjunctiva)?
A: 41,400 hr*ng-equi/g

Q: And the AUCinf ([2]; conjunctiva)?
A: 56,000 hr*ng-equi/g

Q: What about the T1/2 ([2]; conjunctiva) of the same substance?
A: 13.6 h

Q: What about the Tmax ([2]; conjunctiva) of the same substance?
A: 0.5 h

Q: And the equivalent drug concentration ([2]; cornea, 1 hour after subcutaneous dosing (1 mg/kg))?
A: 209 ng-equi/g

Q: What about the “equivalent drug content” value ([2]; cornea) of the same substance?
A: 0.028±0.005%

Q: What about the AUC0-24 h ([2]; cornea) of the same substance?
A: 14,000 hr*ng-equi/g

Q: And the Tmax ([2]; cornea)?
A: 0.5 h

Q: What about the equivalent drug concentration ([2]; iris/ciliary body, 1 hour after subcutaneous dosing (1 mg/kg)) of the same substance?
A: 513±2 ng-equi/g

Q: And the AUC0-24 h ([2]; iris/ciliary body)?
A: 2750 hr*ng-equi/g

Q: What about the AUCinf ([2]; iris/ciliary body) of the same substance?
A: 3279 hr*ng-equi/g

Q: And the T1/2 ([2]; iris/ciliary body)?
A: 8.81 h

Q: And the Tmax ([2]; iris/ciliary body)?
A: 4.0 h

Q: What about the AUC0-24 h ([2]; lens) of the same substance?
A: 2720 hr*ng-equi/g

Q: And the Tmax ([2]; lens)?
A: 4.0 h

Q: What about the equivalent drug concentration ([2]; retina, 1 hour after subcutaneous dosing (1 mg/kg)) of the same substance?
A: 336±3 ng-equi/g

Q: What about the AUC0-24 h ([2]; retina) of the same substance?
A: 1030 hr*ng-equi/g

Q: What about the AUCinf ([2]; retina) of the same substance?
A: 1160 hr*ng-equi/g

Q: And the T1/2 ([2]; retina)?
A: 7.01 h

Q: What about the Tmax ([2]; retina) of the same substance?
A: 4.0 h

Q: And the equivalent drug concentration ([2]; sclera, 1 hour after subcutaneous dosing (1 mg/kg))?
A: 530±47 ng-equi/g

Q: And the “equivalent drug content” value ([2]; sclera)?
A: 0.051±0.035%

Q: What about the AUC0-24 h ([2]; sclera) of the same substance?
A: 5780 hr*ng-equi/g

Q: And the AUCinf ([2]; sclera)?
A: 8910 hr*ng-equi/g

Q: And the T1/2 ([2]; sclera)?
A: 18.3 h

Q: And the Tmax ([2]; sclera)?
A: 0.5 h

Q: What about the AUC0-24 h ([2]; vitreous humor) of the same substance?
A: 221 hr*ng-equi/g

Q: What about the AUCinf ([2]; vitreous humor) of the same substance?
A: 253 hr*ng-equi/g

Q: What about the T1/2 ([2]; vitreous humor) of the same substance?
A: 7.50 h

Q: What about the Tmax ([2]; vitreous humor) of the same substance?
A: 4.0 h
